Laboratory results taken from patent US20200405696A1, “INHIBITORS OF INDOLEAMINE 2,3-DIOXYGENASE AND/OR TRYPTOPHAN 2,3-DIOXYGENASE” (IDORSIA PHARMACEUTICALS LTD, priority 2018, published 2020).

Experiments:
[1] = molecular target: T1, Recombinant full-length human IDO1 (Homo sapiens, UniProt P14902); test: IDO1 enzymatic assay (NFK quantified by LCMS); type: biochemical; conditions: 2 nM enzyme, 5 μM L-tryptophan, pH6.5, 30 minutes pre-incubation at RT; mean values when measured multiple times; read-out: hIDO activity (IC50 in nM)
T1 construct: Recombinant full-length human IDO1 with a N-terminal hexahistidine tag; hexahistidine (His6) (N); made in house; host or cells: E. coli
T1 sequence (P14902 whole entry): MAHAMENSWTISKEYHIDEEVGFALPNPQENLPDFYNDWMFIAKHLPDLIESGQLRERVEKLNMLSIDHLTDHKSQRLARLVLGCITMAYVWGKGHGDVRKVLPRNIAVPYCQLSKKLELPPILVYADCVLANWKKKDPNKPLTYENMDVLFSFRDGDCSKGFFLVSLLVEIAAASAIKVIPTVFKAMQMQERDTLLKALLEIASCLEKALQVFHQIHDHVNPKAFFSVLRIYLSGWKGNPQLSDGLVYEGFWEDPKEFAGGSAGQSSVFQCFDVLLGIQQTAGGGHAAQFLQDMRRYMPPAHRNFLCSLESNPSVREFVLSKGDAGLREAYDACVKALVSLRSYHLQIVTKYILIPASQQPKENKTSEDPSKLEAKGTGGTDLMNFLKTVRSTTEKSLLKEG
Outline: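 His-tagged human IDO1 (2 nM) in pH 6.5 phosphate buffer with ascorbate, methylene blue and catalase was preincubated with compound (10 μM–0.5 nM, 0.6% DMSO) for 30 min at RT. The reaction then ran with 5 μM L-Trp for 30 min. NFK was measured by LCMS against a d5-Trp standard, and IC50 was obtained by four-parameter fit.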

[2] = molecular target: T2, Recombinant human TDO comprising amino acids 19-407 (Homo sapiens, UniProt P48775); test: TDO2 enzymatic assay (NFK quantified by LCMS); type: biochemical; conditions: 15 nM enzyme, 200 μM L-tryptophan, pH7, 30 minutes pre-incubation at RT; mean values when measured multiple times; read-out: hTDO activity (IC50 in nM)
T2 construct: Recombinant human TDO comprising amino acids 19-407 with a N-terminal hexahistidine tag; hexahistidine (His6) (N); made in house; host or cells: E. coli
T2 sequence (P48775 19-406 limits assumed): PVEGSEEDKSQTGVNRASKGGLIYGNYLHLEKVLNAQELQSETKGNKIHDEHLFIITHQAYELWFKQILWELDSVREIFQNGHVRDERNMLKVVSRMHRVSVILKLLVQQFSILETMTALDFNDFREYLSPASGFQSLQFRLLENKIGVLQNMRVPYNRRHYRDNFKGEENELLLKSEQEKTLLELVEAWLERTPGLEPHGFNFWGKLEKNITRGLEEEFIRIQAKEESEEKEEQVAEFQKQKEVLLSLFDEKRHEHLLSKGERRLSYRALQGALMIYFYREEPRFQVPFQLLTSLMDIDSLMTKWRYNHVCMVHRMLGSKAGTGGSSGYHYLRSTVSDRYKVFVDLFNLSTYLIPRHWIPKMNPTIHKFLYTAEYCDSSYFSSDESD
Outline: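 NFK formed over 30 min at RT from 200 μM L-tryptophan was measured by LCMS, normalized to d5-tryptophan, after compound (0.5 nM–10 μM, duplicates, 0.6% DMSO) was preincubated 30 min with 15 nM recombinant His-tagged TDO 19-407 in phosphate buffer pH 7. IC50 from four-parameter logistic fit; repeats averaged.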

SMILES | IC50 [1] | IC50 [2]
COc1ccc(-n2cc(C(O)c3c(C4CC4)sc4cncn34)cn2)cc1 (racemic) [Example 99, rac-(2-Cyclopropyl-imidazo[5,1-b]thiazol-3-yl)-[1-(4-methoxy-phenyl)-1H-pyrazol-4-yl]-methanol] | 31.8 nM | 3570 nM
COC(=O)c1cccc(Cn2cc(C(O)c3c(C4CC4)sc4cncn34)nn2)c1 (racemic) [Example 294, rac-3-{4-[(2-Cyclopropyl-imidazo[5,1-b]thiazol-3-yl)-hydroxy-methyl]-[1,2,3]triazol-1-ylmethyl}-benzoic acid methyl ester] | 35.8 nM | > 10200 nM
CC1NS(=O)(=O)c2ccc(-n3cc(C(O)c4c(C5CC5)sc5cncn45)nn3)cc21 (centres unmarked) [Example 228, (2-Cyclopropyl-imidazo[5,1-b]thiazol-3-yl)-[1-(3-methyl-1,1-dioxo-2,3-dihydro-1H-1I6-benzo[d]isothiazol-5-yl)-1H-[1,2,3]triazol-4-yl]-methanol] | 76.1 nM | > 10200 nM
Cc1cc(O)ccc1-n1cc(C(O)c2c(C3CC3)sc3cncn23)nn1 (racemic) [Example 207, rac-4-{4-[(2-Cyclopropyl-imidazo[5,1-b]thiazol-3-yl)-hydroxy-methyl]-[1,2,3]triazol-1-yl}-3-methyl-phenol] | 26.9 nM | > 10200 nM
OC(c1cn(-c2ccccc2C(F)(F)F)nn1)c1c(C2CC2)sc2cncn12 (racemic) [Example 29, rac-(2-Cyclopropyl-imidazo[5,1-b]thiazol-3-yl)-[1-(2-trifluoromethyl-phenyl)-1H-[1,2,3]triazol-4-yl]-methanol] | 163 nM | > 10200 nM
CCN(CC)S(=O)(=O)c1ccc(-n2cc(C(O)c3c(C4CC4)sc4cncn34)nn2)cc1 (racemic) [Example 238, rac-4-{4-[(2-Cyclopropyl-imidazo[5,1-b]thiazol-3-yl)-hydroxy-methyl]-[1,2,3]triazol-1-yl}-N,N-diethyl-benzenesulfonamide] | 137 nM | > 10200 nM
OC(c1cn(-c2cccc3ncccc23)nn1)c1c(C2CC2)sc2cncn12 (racemic) [Example 24, rac-(2-Cyclopropyl-imidazo[5,1-b]thiazol-3-yl)-(1-quinolin-5-yl-1H-[1,2,3]triazol-4-yl)-methanol] | 22.8 nM | > 10200 nM
OC(c1ccc(-c2ccc3[nH]ccc3c2)s1)c1c(C2CC2)sc2cncn12 (racemic) [Example 176, rac-(2-Cyclopropyl-imidazo[5,1-b]thiazol-3-yl)-[5-(1H-indol-5-yl)-thiophen-2-yl]-methanol] | 260 nM | > 10200 nM
COc1ccc(-n2cc(C(O)c3c(-c4cnn(C)c4)sc4cncn34)nn2)cc1 (racemic) [Example 273, rac-[1-(4-Methoxy-phenyl)-1H-[1,2,3]triazol-4-yl]-[2-(1-methyl-1H-pyrazol-4-yl)-imidazo[5,1-b]thiazol-3-yl]-methanol] | 43.6 nM | > 10200 nM
COc1ccc(-n2cc(C(O)c3c(C)sc4cncn34)cn2)cc1 (racemic) [Example 97, rac-[1-(4-Methoxy-phenyl)-1H-pyrazol-4-yl]-(2-methyl-imidazo[5,1-b]thiazol-3-yl)-methanol] | 121 nM | 1940 nM
OC(c1cn(-c2ccccc2)nn1)c1c(C2CC2)sc2cncn12 (racemic) [Example 2, rac-(2-Cyclopropyl-imidazo[5,1-b]thiazol-3-yl)-(1-phenyl-1H-[1,2,3]triazol-4-yl)-methanol] | 28.1 nM | > 10200 nM
COc1c(F)cc(-n2cc(C(O)c3c(C4CC4)sc4cncn34)nn2)cc1Cl (racemic) [Example 288, rac-[1-(3-Chloro-5-fluoro-4-methoxy-phenyl)-1H-[1,2,3]triazol-4-yl]-(2-cyclopropyl-imidazo[5,1-b]thiazol-3-yl)-methanol] | 15.1 nM | > 10200 nM
CCc1sc2cncn2c1C(O)c1cn(-c2ccc(OCC3(F)COC3)c(Cl)c2)nn1 (racemic) [Example 317, rac-{1-[3-Chloro-4-(3-fluoro-oxetan-3-ylmethoxy)-phenyl]-1H-[1,2,3]triazol-4-yl}-(2-ethyl-imidazo[5,1-b]thiazol-3-yl)-methanol] | 7.18 nM | > 10200 nM
COc1ncc(-n2cc(C(O)c3c(C4CC4)sc4cncn34)nn2)c(OC)n1 (racemic) [Example 84, rac-(2-Cyclopropyl-imidazo[5,1-b]thiazol-3-yl)-[1-(2,4-dimethoxy-pyrimidin-5-yl)-1H-[1,2,3]triazol-4-yl]-methanol] | 81.7 nM | > 10200 nM
COc1ccc(-n2nnc(C(O)c3c(C4CC4)sc4cncn34)c2C(C)(C)C)cc1 (racemic) [Example 274, rac-[5-tert-Butyl-1-(4-methoxy-phenyl)-1H-[1,2,3]triazol-4-yl]-(2-cyclopropyl-imidazo[5,1-b]thiazol-3-yl)-methanol] | 36 nM | > 10200 nM
OC(c1cn(-c2ccc(OCc3ccccc3)cc2)nn1)c1c(C2CC2)sc2cncn12 (racemic) [Example 45, rac-[1-(4-Benzyloxy-phenyl)-1H-[1,2,3]triazol-4-yl]-(2-cyclopropyl-imidazo[5,1-b]thiazol-3-yl)-methanol] | 46.4 nM | > 10200 nM
CCc1sc2cncn2c1C(O)c1cn(-c2ccc(S(=O)(=O)N(C)C)cc2)nn1 (racemic) [Example 241, rac-4-{4-[(2-Ethyl-imidazo[5,1-b]thiazol-3-yl)-hydroxy-methyl]-[1,2,3]triazol-1-yl}-N,N-dimethyl-benzenesulfonamide] | 66 nM | > 10200 nM

Second part, the compound after the results:

IC50 [1] | IC50 [2] | SMILES
279 nM | 7710 nM | Cn1nncc1-c1ccc(C(O)c2c(C3CC3)sc3cncn23)s1 (racemic) [Example 174, rac-(2-Cyclopropyl-imidazo[5,1-b]thiazol-3-yl)-[5-(3-methyl-3H-[1,2,3]triazol-4-yl)-thiophen-2-yl]-methanol]
93.9 nM | 5890 nM | Oc1ccc(-n2cc(C(O)c3c(-c4ccccc4)sc4cncn34)nn2)cc1Cl (racemic) [Example 264, rac-2-Chloro-4-{4-[hydroxy-(2-phenyl-imidazo[5,1-b]thiazol-3-yl)-methyl]-[1,2,3]triazol-1-yl}-phenol]
10.8 nM | > 10200 nM | OCCOc1ccc(-n2cc(C(O)c3c(C4CC4)sc4cncn34)nn2)cc1 (racemic) [Example 136, rac-2-(4-{4-[(2-Cyclopropyl-imidazo[5,1-b]thiazol-3-yl)-hydroxy-methyl]-[1,2,3]triazol-1-yl}-phenoxy)-ethanol]
7.56 nM | > 10200 nM | COc1ccc(-n2cc(C(O)c3c(C4CC4)sc4cncn34)nn2)cc1Cl (racemic) [Example 289, rac-[1-(3-Chloro-4-methoxy-phenyl)-1H-[1,2,3]triazol-4-yl]-(2-cyclopropyl-imidazo[5,1-b]thiazol-3-yl)-methanol]
27.2 nM | > 10200 nM | CC(C)(CO)COc1ccc(-n2cc(C(O)c3c(C4CC4)sc4cncn34)nn2)cc1 (racemic) [Example 141, rac-3-(4-{4-[(2-Cyclopropyl-imidazo[5,1-b]thiazol-3-yl)-hydroxy-methyl]-[1,2,3]triazol-1-yl}-phenoxy)-2,2-dimethyl-propan-1-ol]
32.7 nM | > 10200 nM | COc1ccc(-n2cc(C(O)c3c(C4(F)CC4)sc4cncn34)nn2)cc1 (racemic) [Example 92, rac-[2-(1-Fluoro-cyclopropyl)-imidazo[5,1-b]thiazol-3-yl]-[1-(4-methoxy-phenyl)-1H-[1,2,3]triazol-4-yl]-methanol]
2320 nM | > 10200 nM | OC(c1cccc(-c2ccccc2)c1)c1c(C2CC2)sc2cncn12 (racemic) [Example 153, rac-Biphenyl-3-yl-(2-cyclopropyl-imidazo[5,1-b]thiazol-3-yl)-methanol]
3.82 nM | 1210 nM | CCc1sc2cncn2c1C(O)c1cn(-c2ccc(O)c(Cl)c2)nn1 (racemic) [Example 323, rac-2-Chloro-4-{4-[(2-ethyl-imidazo[5,1-b]thiazol-3-yl)-hydroxy-methyl]-[1,2,3]triazol-1-yl}-phenol]
51.2 nM | > 10200 nM | COc1cc(-n2cc(C(O)c3c(C4CC4)sc4cncn34)nn2)cnc1OC (racemic) [Example 80, rac-(2-Cyclopropyl-imidazo[5,1-b]thiazol-3-yl)-[1-(5,6-dimethoxy-pyridin-3-yl)-1H-[1,2,3]triazol-4-yl]-methanol]
21.3 nM | > 10200 nM | OC(c1cn(-c2cccc3[nH]ccc23)nn1)c1c(C2CC2)sc2cncn12 (racemic) [Example 20, rac-(2-Cyclopropyl-imidazo[5,1-b]thiazol-3-yl)-[1-(1H-indol-4-yl)-1H-[1,2,3]triazol-4-yl]-methanol]
17.6 nM | > 10200 nM | C=C(C)c1sc2cncn2c1C(O)c1cn(-c2ccc(OCCC(C)(C)O)c(Cl)c2)nn1 (racemic) [Example 293, rac-4-(2-Chloro-4-{4-[hydroxy-(2-isopropenyl-imidazo[5,1-b]thiazol-3-yl)-methyl]-[1,2,3]triazol-1-yl}-phenoxy)-2-methyl-butan-2-ol]
